# Results as given in patent US20190105367A1, “ANTIMICROBIAL 4-OXOQUINOLIZINES” (Emergent Product Development Gaithersburg Inc., priority 2011, published 2019).
# Read-outs that look alike come from different tables or passages of the source.
# How the values were obtained:
# A. baumannii A14 [1] = assay: Preliminary MBC without and with sub-inhibitory polymyxin B (Example 4); type: cell-based, Acinetobacter baumannii; conditions: A. baumannii A14; +0.06 μg/ml polymyxin B; preliminary MBC; 1st experiment
# A. baumannii A401 [2] = assay: as above; type: cell-based, Acinetobacter baumannii; conditions: Acinetobacter baumannii
# A. baumannii A14 [3] = assay: MIC without and with sub-inhibitory polymyxin B (Example 4); type: cell-based, Acinetobacter baumannii; conditions: 1st experiment
# [4] = system: Acinetobacter sp. (H064200250); assay: as above; type: cell-based; conditions: for MIC: Acinetobacter
# A. baumannii NCTC 13301 [5] = assay: as above; type: cell-based, Acinetobacter baumannii
# A. baumannii ATCC 19606 = assay: as above; type: cell-based, Acinetobacter baumannii; conditions: A. baumannii ATCC 19606
# A. baumannii A329 = assay: as above; type: cell-based, Acinetobacter baumannii; conditions: A. baumannii A329; +0.06 μg/ml PB; 2nd experiment
# A. baumannii A472 [6] = assay: Preliminary MBC without and with sub-inhibitory polymyxin B (Example 4); type: cell-based, Acinetobacter baumannii; conditions: Acinetobacter baumannii, preliminary MBC
# A. baumannii A489 = assay: MIC without and with sub-inhibitory polymyxin B (Example 4); type: cell-based, Acinetobacter baumannii; conditions: for MIC without PB/MIC + PB: A. baumannii A489; for MIC: Acinetobacter baumannii
# A. baumannii A472 [7] = assay: as above; type: cell-based, Acinetobacter baumannii; conditions: for MIC: Acinetobacter baumannii
# A. baumannii A390 [8] = assay: Preliminary MBC without and with sub-inhibitory polymyxin B (Example 4); type: cell-based, Acinetobacter baumannii; conditions: Acinetobacter baumannii, A390, A. baumannii A390, +0.06 μg/ml PB, 2nd experiment, read-out: MBC
# In short: (§1)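 Bactericidal endpoint scored visually on plates incubated at 37° C (18-20 hours): the lowest concentration where growth fell about 90% versus the positive control, generally leaving one colony or none.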
# A. baumannii A14 [9] = assay: as above; type: cell-based, Acinetobacter baumannii; conditions: A. baumannii A14, +0.06 μg/ml PB, 2nd experiment
# In short: as §1
# A. baumannii A473 [10] = assay: as above; type: cell-based, Acinetobacter baumannii; conditions: Acinetobacter baumannii, A473, A. baumannii A473, +0.06 μg/ml PB, 2nd experiment, read-out: MBC
# In short: as §1
# A. baumannii NCTC 13301 [11] = assay: as above; type: cell-based, Acinetobacter baumannii; conditions: Acinetobacter baumannii
# In short: as §1
# A. baumannii NCTC 13301 [12] = assay: MIC without and with sub-inhibitory polymyxin B (Example 4); type: cell-based, Acinetobacter baumannii; conditions: +[…] PB, 2nd experiment
# A. baumannii A14 [13] = assay: as above; type: cell-based, Acinetobacter baumannii; conditions: 2nd experiment
# A. baumannii A401 [14] = assay: as above; type: cell-based, Acinetobacter baumannii; conditions: for MIC: Acinetobacter baumannii
# A. baumannii A387 [15] = assay: as above; type: cell-based, Acinetobacter baumannii; conditions: for MIC without PB/MIC + PB: A. baumannii A387; for MIC: Acinetobacter baumannii
# A. baumannii A390 [16] = assay: as above; type: cell-based, Acinetobacter baumannii; conditions: +0.06 μg/ml PB, 2nd experiment
# A. baumannii A387 [17] = assay: Preliminary MBC without and with sub-inhibitory polymyxin B (Example 4); type: cell-based, Acinetobacter baumannii; conditions: Acinetobacter baumannii
# [18] = system: strains of A. baumannii and one strain of Acinetobacter sp.; assay: MIC with sub-inhibitory concentrations (0.25x MIC) of polymyxin B, panel of Acinetobacter strains (Example 4); type: cell-based
# A. baumannii J2 = assay: MIC without and with sub-inhibitory polymyxin B (Example 4); type: cell-based, Acinetobacter baumannii; conditions: for MIC without PB/MIC + PB: A. baumannii J2; for MIC: Acinetobacter baumannii
# A. baumannii A473 [19] = assay: as above; type: cell-based, Acinetobacter baumannii; conditions: A. baumannii A473; +0.06 μg/ml PB; 2nd experiment
# [20] = ratio, PB 0.06 μg/ml, 1st experiment
# [21] = A. baumannii A14, +0.06 μg/ml PB
compound,measurement,setting,value
"Cc1c(-c2cc(F)c(N)cc2F)ccn2c(=O)c(C(=O)O)cc(C3CC3)c12 [Compound 2, 8-(4-amino-2,5-difluorophenyl)-1-cyclopropyl-9-methyl-4-oxo-4H-quinolizine-3-carboxylic acid]",MBC +0.06 μg/ml PB,A. baumannii A14 [1],≤0.03 µg/mL
same,MBC,"A. baumannii A401 [2]; A401, A baumannii A 401, +0.06 μg/ml PB, 2nd experiment, read-out: MBC",≤ 0.03 µg/mL
same,MBC,"A. baumannii A401 [2]; A401, read-out: MBC +0.06 μg/ml PB, A baumannii A 401, +0.06 μg/ml polymyxin B, 1st experiment",≤ 0.03 µg/mL
same,MIC +0.06 μg/ml PB,A. baumannii A14 [3]; +0.06 μg/ml polymyxin B,≤0.03 µg/mL
same,MIC,"A. baumannii A14 [3]; Acinetobacter baumannii, 24 h, without polymyxin B, read-out: MIC without PB",16 µg/mL
same,MIC without PB/MIC + PB,"A. baumannii A14 [3]; ratio, PB 0.06 μg/ml",≥512
same,MIC without PB/MIC + PB,"[4]; Acinetobacter spp. H064200250 (OXA51), +[…] PB, 2nd experiment",≥128
same,MIC without PB/MIC + PB,"[4]; Acinetobacter spp. H064200250, ratio, PB […], 1st experiment",≥128
same,MIC,"[4]; Acinetobacter spp. H064200250 (OXA51), +[…] PB, 2nd experiment, read-out: MIC",≤ 0.03 µg/mL
same,MIC,"[4]; read-out: MIC +[…] PB, Acinetobacter spp. H064200250, +[…] polymyxin B, 1st experiment",≤ 0.03 µg/mL
same,MIC without PB/MIC + PB,"A. baumannii NCTC 13301 [5]; A. baumannii NCTC 13301, ratio, PB […], 1st experiment",≥512
same,MIC,"A. baumannii NCTC 13301 [5]; Acinetobacter baumannii, NCTC13301, read-out: MIC +[…] PB",≤ 0.03 µg/mL
same,MIC without PB/MIC + PB,"A. baumannii ATCC 19606; +0.06 μg/ml PB, 2nd experiment",≥4
same,MIC without PB/MIC + PB,A. baumannii ATCC 19606; [20],≥1
same,MIC without PB/MIC + PB,A. baumannii A329,16
same,MBC,"A. baumannii A472 [6]; A472, A. baumannii A472, +[…] PB, 2nd experiment, read-out: MBC",≤ 0.03 µg/mL
same,MBC,"A. baumannii A472 [6]; A472, read-out: MBC +[…] PB, A. baumannii A472, +[…] polymyxin B, 1st experiment",≤ 0.03 µg/mL
same,MIC without PB/MIC + PB,"A. baumannii A489; +[…] PB, 2nd experiment",≥128
same,MIC without PB/MIC + PB,"A. baumannii A489; ratio, PB […], 1st experiment",≥64
same,MIC,"A. baumannii A489; A489, A. baumannii A489, +[…] PB, 2nd experiment, read-out: MIC",≤ 0.03 µg/mL
same,MIC,"A. baumannii A489; A489, read-out: MIC +[…] PB, A. baumannii A489, +[…] polymyxin B, 1st experiment",≤ 0.03 µg/mL
same,MIC without PB/MIC + PB,"A. baumannii A472 [7]; A. baumannii A472, ratio, PB […], 1st experiment",≥128
same,MIC,"A. baumannii A472 [7]; A472, A. baumannii A472, +[…] PB, 2nd experiment, read-out: MIC",≤ 0.03 µg/mL
same,MIC,"A. baumannii A472 [7]; A472, read-out: MIC +[…] PB, A. baumannii A472, +[…] polymyxin B, 1st experiment",≤ 0.03 µg/mL
same,MBC,A. baumannii A390 [8],0.06 µg/mL
same,MBC,A. baumannii A14 [9],0.06 µg/mL
same,MBC,A. baumannii A473 [10],0.125 µg/mL
same,MBC,"A. baumannii NCTC 13301 [11]; NCTC13301, A. baumannii NCTC 13301, +[…] PB, preliminary MBC, 2nd experiment, read-out: MBC",≤ 0.03 µg/mL
same,MBC,"A. baumannii NCTC 13301 [11]; NCTC13301, read-out: MBC +[…] PB",≤ 0.03 µg/mL
same,MIC without PB/MIC + PB,A. baumannii NCTC 13301 [12]; A. baumannii NCTC 13301,≥512
same,MIC,"A. baumannii NCTC 13301 [12]; Acinetobacter baumannii, NCTC13301, A. baumannii NCTC 13301, read-out: MIC",≤ 0.03 µg/mL
same,MIC,A. baumannii A14 [13]; [21],0.06 µg/mL
same,MIC without PB/MIC + PB,A. baumannii A14 [13]; [21],256
same,MIC,"A. baumannii A14 [13]; Acinetobacter baumannii, A14, A. baumannii A14, without PB, read-out: MIC",16 µg/mL
same,MIC without PB/MIC + PB,"A. baumannii A401 [14]; A baumannii A 401, ratio, PB 0.06 μg/ml, 1st experiment",≥128
same,MIC,"A. baumannii A401 [14]; A401, A baumannii A 401, +0.06 μg/ml PB, 2nd experiment, read-out: MIC",≤ 0.03 µg/mL
same,MIC,"A. baumannii A401 [14]; A401, read-out: MIC +0.06 μg/ml PB, A baumannii A 401, +0.06 μg/ml polymyxin B, 1st experiment",≤ 0.03 µg/mL
same,MIC without PB/MIC + PB,"A. baumannii A387 [15]; +0.06 μg/ml PB, 2nd experiment",≥32
same,MIC without PB/MIC + PB,A. baumannii A387 [15]; [20],≥16
same,MIC,"A. baumannii A387 [15]; A387, A. baumannii A387, +0.06 μg/ml PB, 2nd experiment, read-out: MIC",≤ 0.03 µg/mL
same,MIC,"A. baumannii A387 [15]; A387, read-out: MIC +0.06 μg/ml PB, A. baumannii A387, +0.06 μg/ml polymyxin B, 1st experiment",≤ 0.03 µg/mL
same,MIC without PB/MIC + PB,A. baumannii A390 [16]; A. baumannii A390,≥512
same,MIC,"A. baumannii A390 [16]; Acinetobacter baumannii, A390, A. baumannii A390, read-out: MIC",≤ 0.03 µg/mL
same,MBC,"A. baumannii A387 [17]; A387, A. baumannii A387, +0.06 μg/ml PB, 2nd experiment, read-out: MBC",≤ 0.03 µg/mL
same,MBC,"A. baumannii A387 [17]; A387, read-out: MBC +0.06 μg/ml PB, A. baumannii A387, +0.06 μg/ml polymyxin B, 1st experiment",≤ 0.03 µg/mL
same,"MIC range with PB (0.25x MIC) Oct. 1, 2008 n = 8","[18]; 1st experiment, […] polymyxin B, ATCC 19606, A329, A390 and A473 not taken",≤0.03 to 1 µg/mL
same,"MIC range with PB (0.25x MIC) Oct. 14, 2008 n = 11","[18]; 2nd experiment, 0.06 μg/ml polymyxin B, all strains except the ATCC strain",≤0.03 to 0.5 µg/mL
same,MIC without PB/MIC + PB,"A. baumannii J2; +[…] PB, 2nd experiment",≥128
same,MIC without PB/MIC + PB,"A. baumannii J2; ratio, PB […], 1st experiment",≥128
same,MIC,"A. baumannii J2; J2, A. baumannii J2, +[…] PB, 2nd experiment, read-out: MIC",≤ 0.03 µg/mL
same,MIC,"A. baumannii J2; J2, read-out: MIC +[…] PB, A. baumannii J2, +[…] polymyxin B, 1st experiment",≤ 0.03 µg/mL
same,MIC without PB/MIC + PB,A. baumannii A473 [19],64
